Results reported in PMC9533460 (RSC Chemical Biology, 2022).

Columns and labels:
[1] = target: T1, canavanine-γ-lyase (CanγL); aminotransferase AT (Pseudomonas alvandae, UniProt P0DXC4); assay: UV/Vis spectra of the enzyme reaction; assay type: binding; settings: covalent (internal aldimine with K213); canavanine as substrate
T1 sequence (P0DXC4 1-400): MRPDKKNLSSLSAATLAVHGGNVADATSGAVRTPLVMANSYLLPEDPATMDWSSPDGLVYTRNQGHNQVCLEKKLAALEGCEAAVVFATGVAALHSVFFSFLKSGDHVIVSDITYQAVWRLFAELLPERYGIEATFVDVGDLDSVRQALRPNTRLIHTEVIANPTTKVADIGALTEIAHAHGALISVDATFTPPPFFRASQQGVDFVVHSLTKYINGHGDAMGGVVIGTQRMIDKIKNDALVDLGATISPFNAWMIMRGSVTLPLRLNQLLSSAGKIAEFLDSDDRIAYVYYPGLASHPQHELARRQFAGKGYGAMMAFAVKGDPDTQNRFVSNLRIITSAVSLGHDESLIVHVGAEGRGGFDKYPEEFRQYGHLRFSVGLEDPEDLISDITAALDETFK

[2] = target: T2, aldehyde-dehydrogenase 1 (AH) (Pseudomonas alvandae, UniProt P0DXC7); assay: 1H-NMR of coupled reaction homoserine to fumarate; assay type: biochemical; settings: aspartate semialdehyde formed in situ from homoserine by HD; with AAL
T2 sequence (P0DXC7 1-470): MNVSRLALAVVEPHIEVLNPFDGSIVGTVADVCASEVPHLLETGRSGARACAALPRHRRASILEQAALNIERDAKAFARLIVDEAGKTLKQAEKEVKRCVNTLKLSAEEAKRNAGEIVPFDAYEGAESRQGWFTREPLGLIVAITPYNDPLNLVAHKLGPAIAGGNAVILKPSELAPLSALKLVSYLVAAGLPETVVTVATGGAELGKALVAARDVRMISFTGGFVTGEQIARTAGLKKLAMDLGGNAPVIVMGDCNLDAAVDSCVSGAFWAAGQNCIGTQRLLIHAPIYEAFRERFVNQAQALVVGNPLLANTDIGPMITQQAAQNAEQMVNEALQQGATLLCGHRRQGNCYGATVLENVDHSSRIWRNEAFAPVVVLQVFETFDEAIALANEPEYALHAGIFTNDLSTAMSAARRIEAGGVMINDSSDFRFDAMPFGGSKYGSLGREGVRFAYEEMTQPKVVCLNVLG

[3] = target: T3, aldehyde-dehydrogenase 2 (AC) (Pseudomonas alvandae, UniProt P0DXC6); assay: 1H-NMR of coupled reaction homoserine to fumarate; assay type: biochemical; settings: aspartate semialdehyde formed in situ from homoserine by HD; with AAL
T3 sequence (P0DXC6 1-485): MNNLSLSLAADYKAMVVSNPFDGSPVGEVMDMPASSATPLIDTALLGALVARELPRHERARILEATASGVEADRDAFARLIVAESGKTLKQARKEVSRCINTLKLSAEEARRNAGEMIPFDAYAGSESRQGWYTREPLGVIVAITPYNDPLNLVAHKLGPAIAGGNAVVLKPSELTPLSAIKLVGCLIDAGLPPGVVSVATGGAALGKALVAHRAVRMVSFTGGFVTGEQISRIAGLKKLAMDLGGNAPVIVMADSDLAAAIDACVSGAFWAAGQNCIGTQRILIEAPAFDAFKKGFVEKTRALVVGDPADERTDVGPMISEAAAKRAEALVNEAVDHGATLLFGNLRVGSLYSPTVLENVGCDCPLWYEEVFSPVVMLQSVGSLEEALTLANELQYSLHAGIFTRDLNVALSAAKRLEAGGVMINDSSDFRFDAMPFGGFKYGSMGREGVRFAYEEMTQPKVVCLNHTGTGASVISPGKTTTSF

[4] = target: T4, homoserine-dehydrogenase (HD) (Pseudomonas alvandae, UniProt P0DXC5); assay: NADH formation; assay type: biochemical; settings: NAD+ as co-substrate
T4 sequence (P0DXC5 1-352): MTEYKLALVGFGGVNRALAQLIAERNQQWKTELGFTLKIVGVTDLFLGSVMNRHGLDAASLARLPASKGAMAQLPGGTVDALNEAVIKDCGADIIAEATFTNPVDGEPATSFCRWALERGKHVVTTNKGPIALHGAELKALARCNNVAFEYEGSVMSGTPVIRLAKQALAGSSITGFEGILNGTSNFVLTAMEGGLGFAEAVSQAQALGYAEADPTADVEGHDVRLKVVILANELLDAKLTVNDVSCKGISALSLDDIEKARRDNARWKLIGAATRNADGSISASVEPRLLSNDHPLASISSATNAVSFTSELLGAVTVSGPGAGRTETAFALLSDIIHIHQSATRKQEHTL

[5] = target: T5, ammonium–aspartate–lyase (AAL) (Pseudomonas alvandae, UniProt P0DXC8); assay: 1H-NMR of coupled reaction homoserine to fumarate; assay type: biochemical; settings: aspartate formed in situ by HD with AH or AC
T5 sequence (P0DXC8 1-474): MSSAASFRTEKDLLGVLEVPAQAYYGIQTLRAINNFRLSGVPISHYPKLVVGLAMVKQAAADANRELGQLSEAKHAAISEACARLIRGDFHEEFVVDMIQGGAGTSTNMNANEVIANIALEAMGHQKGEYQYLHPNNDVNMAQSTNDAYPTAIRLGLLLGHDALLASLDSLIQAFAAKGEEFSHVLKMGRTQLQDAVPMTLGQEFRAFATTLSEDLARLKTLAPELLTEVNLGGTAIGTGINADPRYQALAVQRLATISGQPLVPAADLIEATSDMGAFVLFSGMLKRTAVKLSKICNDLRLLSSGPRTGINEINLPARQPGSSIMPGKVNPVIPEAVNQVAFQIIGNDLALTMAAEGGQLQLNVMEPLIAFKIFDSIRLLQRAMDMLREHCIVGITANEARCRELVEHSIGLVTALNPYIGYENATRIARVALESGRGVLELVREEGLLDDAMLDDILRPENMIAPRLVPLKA

[6] = target: T4, homoserine-dehydrogenase (HD); assay: NADH formation; assay type: biochemical; settings: homoserine as co-substrate

Q: `Cc1ncc(COP(=O)(O)O)c(C=O)c1O` [PLP] was tested. Which “UV/Vis spectra of the enzyme reaction; K213A comparison” value [1] did it give?
A: Time-dependent increase of presumed aldimine and quinonoid peaks were observed for the wt enzyme

Q: Which “1H-NMR of coupled reaction homoserine to fumarate” value (“1H-NMR … to fumarate” for short) [2] does the source give for `N[C@@H](CC=O)C(=O)O` [aspartate semialdehyde] here?
A: purified HD with either of the two aldehyde-dehydrogenases AH or AC and AAL

Q: And the “1H-NMR … to fumarate” value [3]?
A: purified HD with either of the two aldehyde-dehydrogenases AH or AC and AAL

Q: `N[C@@H](CCO)C(=O)O` [homoserine] was tested. Which “NADH formation; 1H-NMR of the coupled reaction” value [4] did it give?
A: homoserine-dehydrogenase (HD) which catalyzes the conversion of homoserine and NAD+

Q: With `N[C@@H](CC(=O)O)C(=O)O` [aspartate] as the compound, how does the “1H-NMR … to fumarate” value [5] read?
A: AH or AC and AAL the formation of fumarate via aspartate was observed

Q: `NC(=O)c1ccc[n+]([C@@H]2O[C@H](COP(=O)(O)OP(=O)(O)OC[C@H]3O[C@@H](n4cnc5c(N)ncnc54)[C@H](O)[C@@H]3O)[C@@H](O)[C@H]2O)c1` [NAD+] was tested. Which NADH formation [6] did it give?
A: the reaction of HD was only dependent on the cofactor NAD^+
